From US20100168040A1, “MUSCLE FATIGUE REMEDY” (Kyowa Hakko Kogyo Co., Ltd., priority 2006, published 2010)
Residues, ends and D or L forms follow the SMILES beside them.

Experiments:
muscle fatigue = test: Test Example 1: muscle fatigue status of healthy males consuming alanylglutamine continuously for 1 month; format: in vivo, human; conditions: for Muscle fatigue status: 1 month
Procedure: Twenty-six healthy males ages 21 to 60 consumed alanylglutamine (manufactured by Kyowa Hakko Co., Ltd.) continuously for 1 month, and the muscle fatigue status of the subjects was evaluated.

[1] = alanylglutamine compared to glutamine; cited from earlier work
[2] = cited from earlier work
[3] = alanylglutamine compared to glutamine; cited from earlier work; remark: listed apart in the source

## C[C@H](N)C(=O)N[C@@H](CCC(N)=O)C(=O)O [alanylglutamine] (H-Ala-Gln-OH)
Muscle fatigue; of the 15 listed subjects (26 in all), 1 month consumption
  subjects with alleviation of muscle pain after exercise: 10 subjects
Muscle fatigue; of the 26 subjects, 1 month consumption
  subjects in whom relief of muscle fatigue was observed: 15 subjects
Muscle fatigue; subject 21 to 25 years, before going to bed, 2 g/administration
  Muscle fatigue status: Disappearance of muscle pain
Muscle fatigue; subject 26 to 30 years, after exercising, 1 g/administration
  Muscle fatigue status: Substantial relief of muscle pain
Muscle fatigue; subject 26 to 30 years, before and after exercise, approximately 1 g/administration
  Muscle fatigue status: Reduction of muscle fatigue
Muscle fatigue; subject 31 to 35 years, before exercise, 8 g/administration
  Muscle fatigue status: Feeling of damage relief
Muscle fatigue; subject 31 to 35 years, morning and before going to bed, 0.6 g/administration
  Muscle fatigue status: Reduction of muscle pain after
Muscle fatigue; subject 31 to 35 years, morning, 0.5 g/administration
  Muscle fatigue status: Lighter muscle pain after
Muscle fatigue; subject 36 to 40 years, morning and evening, 0.5 g/administration
  Muscle fatigue status: Reduction of muscle pain
Muscle fatigue; subject 45 to 50 years, before going to bed, approximately 2.5 g/administration
  Muscle fatigue status: Reduction of stiff shoulders the
Muscle fatigue; subject 46 to 50 years, after meals morning and evening, 1 g/administration
  Muscle fatigue status: Less fatigue and muscle pain
Muscle fatigue; subject 51 to 55 years, before going to bed, approximately 0.5 g/administration
  Muscle fatigue status: Became less prone to fatigue
Muscle fatigue; subject 51 to 55 years, every morning, 1 g/administration
  Muscle fatigue status: Alleviation of muscle pain after
Muscle fatigue; subject 56 to 60 years, morning and evening, 0.5 g/administration
  Muscle fatigue status: Reduction of muscle pain
[1]
  heat stability: superior
[2]
  degradation in the body: immediately degraded into alanine and glutamine
[3]
  solubility in aqueous solutions: superior
